Laboratory results taken from the OligoGym collection.
Values joined by “and” are separate entries in the source; they are usually repeats but may differ in a detail not shown here. Equal entries are not always repeated. HELM strings list units from the 5' end as sugar, base in round brackets, then linkage (d deoxyribose, r ribose, m 2'-O-methyl, p phosphodiester). Strings are as the collection lists them, not checked against the first reports. ss, as = sense and antisense strand; [lna] = locked nucleic acid (LNA); [hna] = hexitol nucleic acid; [s4r] = 4'-thioribose; [fl2r] = 2'-fluoro

Details: siRNA
Further: test system not given here.

Substance	target mRNA knockdown
RNA1{r(A)p.r(A)p.r(A)p.r(C)p.r(C)p.r(U)p.r(C)p.r(A)p.r(G)p.r(C)p.r(C)p.r(C)p.m(U)p.m(A)p.r(A)p.r(C)p.r(G)p.r(G)p.r(U)p.r(T)p.r(T)}|RNA2{r(A)p.r(C)p.r(C)p.r(G)p.r(U)p.m(U)p.r(A)p.r(G)p.r(G)p.r(G)p.r(C)p.r(U)p.r(G)p.r(A)p.r(G)p.r(G)p.r(U)p.r(U)p.r(U)p.r(T)p.r(T)}$$$RNA1{StrandType:ss}|RNA2{StrandType:as}$	69%
RNA1{[fl2r](U)p.r(C)p.[fl2r](C)p.r(G)p.[fl2r](G)p.r(C)p.[fl2r](U)p.r(A)p.[fl2r](A)p.r(C)p.[fl2r](U)p.r(C)p.[fl2r](U)p.r(G)p.[fl2r](A)p.r(G)p.[fl2r](G)p.r(A)p.[fl2r](C)p.r(T)p.r(T)}|RNA2{r(G)p.r(U)p.r(C)p.r(C)p.r(U)p.r(C)p.r(A)p.r(G)p.r(A)p.r(G)p.r(U)p.r(U)p.r(A)p.r(G)p.r(C)p.r(C)p.r(G)p.r(G)p.r(A)p.r(T)p.r(T)}$$$RNA1{StrandType:ss}|RNA2{StrandType:as}$	41%
RNA1{r(A)p.r(G)p.r(A)p.r(G)p.r(A)p.r(G)p.r(G)p.r(U)p.r(G)p.r(G)p.r(A)p.r(G)p.r(G)p.m(U)p.r(A)p.r(U)p.r(C)p.r(U)p.r(C)p.r(T)p.r(T)}|RNA2{r(G)p.r(A)p.r(G)p.r(A)p.m(U)p.r(A)p.r(C)p.r(C)p.r(U)p.r(C)p.r(C)p.r(A)p.r(C)p.r(C)p.r(U)p.r(C)p.r(U)p.r(C)p.r(U)p.r(T)p.r(T)}$$$RNA1{StrandType:ss}|RNA2{StrandType:as}$	90%
RNA1{r(G)p.r(G)p.r(C)p.r(C)p.r(A)p.r(A)p.r(A)p.r(G)p.m(U)p.r(A)p.r(A)p.r(U)p.r(C)p.r(G)p.r(U)p.r(G)p.r(G)p.r(U)p.r(U)p.r(T)p.r(T)}|RNA2{r(A)p.r(A)p.r(C)p.r(C)p.r(A)p.r(C)p.r(G)p.r(A)p.r(U)p.m(U)p.r(A)p.r(C)p.r(U)p.r(U)p.r(U)p.r(G)p.r(G)p.r(C)p.r(C)p.r(T)p.r(T)}$$$RNA1{StrandType:ss}|RNA2{StrandType:as}$	85%
RNA1{r(C)p.[fl2r](U)p.r(A)p.r(A)p.r(G)p.r(C)p.r(C)p.r(U)p.r(G)p.r(U)p.r(U)p.r(U)p.r(C)p.r(U)p.r(U)p.r(C)p.r(C)p.r(U)p.r(C)p.r(T)p.r(T)}|RNA2{r(G)p.r(A)p.r(G)p.r(G)p.r(A)p.r(A)p.r(G)p.r(A)p.r(A)p.r(A)p.r(C)p.r(A)p.r(G)p.r(G)p.r(C)p.r(U)p.r(U)p.r(A)p.r(G)p.r(T)p.r(T)}$$$RNA1{StrandType:ss}|RNA2{StrandType:as}$	82%
RNA1{m(C)p.r(U)p.m(C)p.r(U)p.m(G)p.r(G)p.m(C)p.r(C)p.m(U)p.m(U)p.r(U)p.r(C)p.m(U)p.r(C)p.m(U)p.r(C)p.m(U)p.r(A)p.m(G)p.r(T)p.r(T)}|RNA2{r(C)p.r(U)p.r(A)p.r(G)p.r(A)p.r(G)p.r(A)p.r(G)p.r(A)p.r(A)p.r(A)p.r(G)p.r(G)p.r(C)p.r(C)p.r(A)p.r(G)p.r(A)p.r(G)p.r(T)p.r(T)}$$$RNA1{StrandType:ss}|RNA2{StrandType:as}$	24%
RNA1{[fl2r](A)p.r(C)p.[fl2r](C)p.r(U)p.[fl2r](U)p.r(A)p.[fl2r](A)p.r(G)p.[fl2r](G)p.r(A)p.[fl2r](C)p.r(C)p.[fl2r](A)p.r(C)p.[fl2r](C)p.r(G)p.[fl2r](G)p.r(A)p.[fl2r](U)p.r(T)p.r(T)}|RNA2{[fl2r](A)p.r(U)p.r(C)p.r(C)p.r(G)p.r(G)p.r(U)p.r(G)p.r(G)p.r(U)p.r(C)p.r(C)p.r(U)p.r(U)p.[fl2r](A)p.[fl2r](A)p.r(G)p.r(G)p.r(U)p.r(T)p.r(T)}$$$RNA1{StrandType:ss}|RNA2{StrandType:as}$	41%
RNA1{r(A)p.r(G)p.r(C)p.r(G)p.r(G)p.r(G)p.r(G)p.m(U)p.r(A)p.r(U)p.r(G)p.r(A)p.r(A)p.r(G)p.r(A)p.r(G)p.r(C)p.r(U)p.r(U)p.r(T)p.r(T)}|RNA2{r(A)p.r(A)p.r(G)p.r(C)p.r(U)p.r(C)p.r(U)p.r(U)p.r(C)p.r(A)p.m(U)p.r(A)p.r(C)p.r(C)p.r(C)p.r(C)p.r(G)p.r(C)p.r(U)p.r(T)p.r(T)}$$$RNA1{StrandType:ss}|RNA2{StrandType:as}$	82%
RNA1{r(G)p.r(A)p.r(C)p.r(G)p.[hna](U)p.r(A)p.r(A)p.[hna](A)p.r(C)p.r(G)p.[hna](G)p.r(C)p.r(C)p.[hna](A)p.r(C)p.r(A)p.r(A)p.r(G)p.[hna](U)p.r(U)p.d(T)}|RNA2{r(A)p.r(C)p.[lna](T)p.r(U)p.r(G)p.[lna](T)p.r(G)p.r(G)p.r(C)p.r(C)p.r(G)p.r(U)p.r(U)p.[lna](T)p.r(A)p.r(C)p.r(G)p.[lna](T)p.r(C)p.[lna](G)p.[lna](C)}$$$RNA1{StrandType:ss}|RNA2{StrandType:as}$	7.9%
RNA1{r(C)p.r(U)p.r(C)p.r(C)p.r(U)p.r(U)p.r(C)p.r(A)p.r(U)p.r(U)p.r(C)p.r(C)p.r(A)p.r(G)p.r(C)p.r(C)p.m(U)p.r(A)p.r(U)p.r(T)p.r(T)}|RNA2{r(A)p.m(U)p.r(A)p.r(G)p.r(G)p.r(C)p.r(U)p.r(G)p.r(G)p.r(A)p.r(A)p.r(U)p.r(G)p.r(A)p.r(A)p.r(G)p.r(G)p.r(A)p.r(G)p.r(T)p.r(T)}$$$RNA1{StrandType:ss}|RNA2{StrandType:as}$	81%
RNA1{r(G)p.r(A)p.r(C)p.r(G)p.[hna](U)p.r(A)p.r(A)p.[hna](A)p.r(C)p.r(G)p.[hna](G)p.r(C)p.r(C)p.[hna](A)p.r(C)p.r(A)p.r(A)p.r(G)p.r(U)p.r(U)p.d(T)}|RNA2{r(A)p.r(C)p.r(U)p.r(U)p.r(G)p.r(U)p.r(G)p.r(G)p.r(C)p.r(C)p.r(G)p.r(U)p.r(U)p.r(U)p.r(A)p.r(C)p.r(G)p.r(U)p.r(C)p.r(G)p.r(C)}$$$RNA1{StrandType:ss}|RNA2{StrandType:as}$	81.2%
RNA1{r(A)p.r(U)p.r(C)p.r(G)p.r(A)p.r(C)p.r(C)p.r(U)p.r(G)p.r(A)p.r(A)p.r(G)p.r(G)p.r(A)p.r(G)p.[fl2r](U)p.r(A)p.r(C)p.r(G)p.r(T)p.r(T)}|RNA2{r(C)p.r(G)p.r(U)p.[fl2r](A)p.r(C)p.r(U)p.r(C)p.r(C)p.r(U)p.r(U)p.r(C)p.r(A)p.r(G)p.r(G)p.r(U)p.r(C)p.r(G)p.r(A)p.r(U)p.r(T)p.r(T)}$$$RNA1{StrandType:ss}|RNA2{StrandType:as}$	82%
RNA1{r(A)p.r(A)p.r(C)p.r(C)p.r(C)p.r(A)p.r(C)p.r(C)p.r(A)p.r(C)p.r(A)p.r(G)p.r(C)p.m(U)p.r(A)p.r(G)p.r(A)p.r(A)p.r(C)p.r(U)p.r(U)}|RNA2{r(A)p.r(A)p.r(G)p.r(U)p.r(U)p.r(C)p.r(U)p.r(A)p.r(G)p.r(C)p.r(U)p.r(G)p.r(U)p.r(G)p.r(G)p.r(U)p.r(G)p.r(G)p.r(G)p.r(U)p.r(U)}$$$RNA1{StrandType:ss}|RNA2{StrandType:as}$	84% and 82%
RNA1{r(G)p.r(A)p.r(G)p.r(A)p.r(G)p.r(A)p.r(G)p.r(A)p.r(C)p.r(G)p.r(G)p.m(U)p.m(G)p.r(G)p.r(A)p.r(A)p.r(G)p.r(A)p.r(A)p.r(T)p.r(T)}|RNA2{r(U)p.r(U)p.r(C)p.r(U)p.r(U)p.r(C)p.m(C)p.r(A)p.r(C)p.r(C)p.r(G)p.r(U)p.r(C)p.r(U)p.r(C)p.r(U)p.r(C)p.r(U)p.r(C)p.r(T)p.r(T)}$$$RNA1{StrandType:ss}|RNA2{StrandType:as}$	72%
RNA1{r(G)p.r(A)p.r(C)p.r(G)p.r(U)p.r(A)p.r(A)p.r(A)p.r(C)p.r(G)p.r(G)p.r(C)p.r(C)p.r(A)p.r(C)p.r(A)p.r(A)p.r(G)p.r(U)p.[lna](T)p.[lna](C)}|RNA2{r(A)p.r(C)p.r(U)p.r(U)p.r(G)p.r(U)p.r(G)p.r(G)p.r(C)p.r(C)p.r(G)p.r(U)p.r(U)p.r(U)p.r(A)p.r(C)p.r(G)p.r(U)p.[lna](C)p.[lna](G)p.r(C)}$$$RNA1{StrandType:ss}|RNA2{StrandType:as}$	86.7%
RNA1{[s4r](C)p.[s4r](G)p.r(U)p.r(A)p.r(C)p.r(G)p.r(C)p.r(G)p.r(G)p.r(A)p.r(A)p.r(U)p.r(A)p.r(C)p.r(U)p.r(U)p.r(C)p.r(G)p.r(A)p.r(T)p.r(T)}|RNA2{r(U)p.r(C)p.r(G)p.r(A)p.r(A)p.r(G)p.r(U)p.r(A)p.r(U)p.r(U)p.r(C)p.r(C)p.r(G)p.r(C)p.r(G)p.r(U)p.r(A)p.[s4r](C)p.[s4r](G)p.r(T)p.r(T)}$$$RNA1{StrandType:ss}|RNA2{StrandType:as}$	91.3%
RNA1{[fl2r](U)p.r(A)p.[fl2r](A)p.r(C)p.[fl2r](C)p.r(C)p.[fl2r](C)p.r(A)p.[fl2r](A)p.r(G)p.[fl2r](A)p.r(A)p.[fl2r](C)p.r(G)p.[fl2r](G)p.r(G)p.[fl2r](C)p.r(U)p.[fl2r](U)p.r(T)p.r(T)}|RNA2{[fl2r](A)p.[fl2r](A)p.r(G)p.r(C)p.r(C)p.r(C)p.r(G)p.r(U)p.r(U)p.r(C)p.r(U)p.r(U)p.r(G)p.r(G)p.r(G)p.r(G)p.r(U)p.r(U)p.[fl2r](A)p.r(T)p.r(T)}$$$RNA1{StrandType:ss}|RNA2{StrandType:as}$	47%
RNA1{r(A)p.r(G)p.r(U)p.r(U)p.r(U)p.r(C)p.[fl2r](U)p.[fl2r](A)p.r(G)p.r(G)p.r(G)p.r(C)p.r(C)p.r(G)p.r(U)p.r(G)p.r(G)p.r(C)p.r(C)p.r(T)p.r(T)}|RNA2{r(G)p.r(G)p.r(C)p.r(C)p.r(A)p.r(C)p.r(G)p.r(G)p.r(C)p.r(C)p.r(C)p.[fl2r](U)p.r(A)p.r(G)p.r(A)p.r(A)p.r(A)p.r(C)p.r(U)p.r(T)p.r(T)}$$$RNA1{StrandType:ss}|RNA2{StrandType:as}$	82%
RNA1{[hna](G)p.[hna](A)p.[hna](C)p.r(G)p.r(U)p.r(A)p.r(A)p.r(A)p.r(C)p.r(G)p.r(G)p.r(C)p.r(C)p.r(A)p.r(C)p.r(A)p.r(A)p.[hna](G)p.[hna](U)p.r(U)p.d(T)}|RNA2{r(A)p.r(C)p.r(U)p.r(U)p.r(G)p.r(U)p.r(G)p.r(G)p.r(C)p.r(C)p.r(G)p.r(U)p.r(U)p.r(U)p.r(A)p.r(C)p.r(G)p.r(U)p.[lna](C)p.[lna](G)p.r(C)}$$$RNA1{StrandType:ss}|RNA2{StrandType:as}$	84.7%
RNA1{[lna](T)p.r(G)p.r(A)p.r(G)p.r(A)p.r(G)p.r(A)p.r(A)p.r(A)p.r(G)p.r(C)p.r(A)p.r(C)p.r(A)p.r(G)p.r(A)p.r(A)p.r(A)p.r(A)p.[lna](T)p.[lna](T)}|RNA2{r(U)p.r(U)p.r(U)p.r(U)p.r(C)p.r(U)p.r(G)p.r(U)p.r(G)p.r(C)p.r(U)p.r(U)p.r(U)p.r(C)p.r(U)p.r(C)p.r(U)p.r(C)p.r(A)p.r(T)p.r(T)}$$$RNA1{StrandType:ss}|RNA2{StrandType:as}$	74%
